Reference: patent US12037344B2, “NLRP3 modulators” (INNATE TUMOR IMMUNITY, INC., priority 2018, dated 2024)
pEC50: −log10 of the molar value. Like-named read-outs stand apart in the source and are kept apart here.

Tests used:
[1] = system: THP-1 cells; experiment: Measurement of IL-1β production, hTRF protocol (second alternative procedure), THP-1 cells; format: cell-based, human; settings: read-out: NLRP3 hILIB EC50
Outline: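 Compounds, dilution series starting at a final 10 μM, were incubated 2 hours at 37° C with PMA-differentiated THP-1 cells (50 ng/ml overnight; 50,000 cells/well, 2% FBS RPMI). Released IL-1β quantified in supernatant by hTRF kit with 1:40 antibody dilution, 4° C overnight, 665/615 nm ratio.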

[2] = biological target: T1, TLR8 (Homo sapiens, UniProt Q9NR97); experiment: In vitro human TLR8 binding reporter assay (HEK-Blue, NF-kB/AP1-inducible SEAP); format: cell-based; settings: read-out: TLR8 Agonist EC50
T1 construct: human HEK-Blue cells co-expressing a TLR7 or TLR8 gene
T1 sequence (Q9NR97 27-1041): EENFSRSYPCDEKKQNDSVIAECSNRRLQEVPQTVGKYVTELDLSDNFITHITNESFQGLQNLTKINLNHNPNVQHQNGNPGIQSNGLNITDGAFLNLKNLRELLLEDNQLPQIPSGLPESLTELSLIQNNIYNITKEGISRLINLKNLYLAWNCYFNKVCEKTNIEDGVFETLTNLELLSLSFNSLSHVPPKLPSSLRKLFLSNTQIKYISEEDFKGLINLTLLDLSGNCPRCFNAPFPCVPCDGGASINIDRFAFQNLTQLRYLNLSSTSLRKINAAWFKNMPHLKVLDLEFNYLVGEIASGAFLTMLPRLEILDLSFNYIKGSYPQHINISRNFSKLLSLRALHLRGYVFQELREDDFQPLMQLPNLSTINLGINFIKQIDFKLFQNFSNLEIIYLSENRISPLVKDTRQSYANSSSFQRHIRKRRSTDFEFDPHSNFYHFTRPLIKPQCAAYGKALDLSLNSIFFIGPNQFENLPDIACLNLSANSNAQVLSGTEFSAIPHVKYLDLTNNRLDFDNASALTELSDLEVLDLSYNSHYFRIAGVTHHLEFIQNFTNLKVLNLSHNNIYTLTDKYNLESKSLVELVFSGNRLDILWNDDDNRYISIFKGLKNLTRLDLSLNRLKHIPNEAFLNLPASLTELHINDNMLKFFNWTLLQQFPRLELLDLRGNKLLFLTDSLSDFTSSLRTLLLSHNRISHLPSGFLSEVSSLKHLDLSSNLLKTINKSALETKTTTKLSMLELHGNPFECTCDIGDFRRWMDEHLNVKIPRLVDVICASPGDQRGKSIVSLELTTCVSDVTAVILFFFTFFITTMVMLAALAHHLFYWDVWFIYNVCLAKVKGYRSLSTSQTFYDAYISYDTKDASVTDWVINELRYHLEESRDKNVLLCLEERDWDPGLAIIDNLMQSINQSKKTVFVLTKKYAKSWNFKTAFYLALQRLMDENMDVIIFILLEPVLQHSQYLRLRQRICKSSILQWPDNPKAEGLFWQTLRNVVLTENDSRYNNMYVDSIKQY
Outline: (§1)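 EC50s come from NF-kB/AP1-driven SEAP secretion in HEK-Blue cells expressing TLR7 or TLR8, measured with Quanti-Blue after an 18 h compound incubation. Maximal response is defined by a 50 μM reference standard.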

[3] = biological target: T2, TLR7 (Homo sapiens, UniProt Q9NYK1); experiment: In vitro human TLR7 binding reporter assay (HEK-Blue, NF-kB/AP1-inducible SEAP); format: cell-based; settings: read-out: TLR7 Agonist EC50
T2 construct: human HEK-Blue cells co-expressing a TLR7 or TLR8 gene
T2 sequence (Q9NYK1 27-1049): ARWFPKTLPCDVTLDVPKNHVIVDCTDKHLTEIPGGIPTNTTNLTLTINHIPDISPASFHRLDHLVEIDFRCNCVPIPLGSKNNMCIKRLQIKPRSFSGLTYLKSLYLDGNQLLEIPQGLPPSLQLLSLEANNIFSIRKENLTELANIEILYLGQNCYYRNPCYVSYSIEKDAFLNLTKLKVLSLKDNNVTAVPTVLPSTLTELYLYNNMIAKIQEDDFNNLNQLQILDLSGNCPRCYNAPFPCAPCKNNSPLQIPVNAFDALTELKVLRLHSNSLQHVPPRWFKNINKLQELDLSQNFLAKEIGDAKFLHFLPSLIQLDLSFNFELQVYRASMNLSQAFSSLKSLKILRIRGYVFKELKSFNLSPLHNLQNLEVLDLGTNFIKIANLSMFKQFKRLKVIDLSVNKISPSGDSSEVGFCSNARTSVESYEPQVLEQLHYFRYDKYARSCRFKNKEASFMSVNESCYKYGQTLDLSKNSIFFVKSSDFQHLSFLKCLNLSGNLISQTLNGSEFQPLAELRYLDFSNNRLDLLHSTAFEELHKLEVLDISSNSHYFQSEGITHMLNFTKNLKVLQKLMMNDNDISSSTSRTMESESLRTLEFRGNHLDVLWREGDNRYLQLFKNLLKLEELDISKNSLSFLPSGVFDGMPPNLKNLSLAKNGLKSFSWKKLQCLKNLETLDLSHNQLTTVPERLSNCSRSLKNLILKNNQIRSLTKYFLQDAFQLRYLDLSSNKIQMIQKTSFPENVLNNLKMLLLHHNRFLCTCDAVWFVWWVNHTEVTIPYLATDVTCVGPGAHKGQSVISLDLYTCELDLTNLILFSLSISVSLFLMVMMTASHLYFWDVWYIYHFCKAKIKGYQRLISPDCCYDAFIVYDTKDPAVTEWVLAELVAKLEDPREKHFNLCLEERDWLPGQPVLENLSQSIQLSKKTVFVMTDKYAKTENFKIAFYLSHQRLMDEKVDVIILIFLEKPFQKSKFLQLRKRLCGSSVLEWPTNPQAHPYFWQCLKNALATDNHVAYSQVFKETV
Outline: as §1

[4] = Homo sapiens, THP-1, IL-1β production, human cells
[5] = Homo sapiens, THP-1, IL-1β production, human

SMILES | pEC50 [1, 4] | pEC50 ([2]; activity range) | pEC50 ([3]; activity range) | pEC50 [1, 5] | pEC50 ([2]; activity range class) | pEC50 ([3]; activity range class) | pEC50 ([1]; IL-1β production, human)
Nc1nc2cc(-c3cc[nH]n3)ccc2c2[nH]c(CCNC(=O)c3ccc(F)cn3)cc12 [Example 417] | 6.80 | < 4.00 | < 4.00 | – | – | – | –
CC(C)NC(=O)Cn1cc2c(n1)c(N)nc1cc(-c3cc[nH]n3)ccc12 [Example 534] | 6.15 | < 4.00 | < 4.00 | – | – | – | –
CCS(=O)(=O)CCn1cc2c(n1)c(N)nc1cc(-c3cc[nH]n3)ccc12 [Example 526] | 6.15 | < 4.00 | < 4.00 | – | – | – | –
CC(C)(Cn1cc2c(N)nc3cc(-c4ccn[nH]4)ccc3c2n1)C(=O)N1CCOCC1 [Example 591] | 4.77 | < 4.00 | < 4.00 | – | – | – | –
C[C@@H](CO)Cn1cc2c(N)nc3cc(-c4cc[nH]n4)ccc3c2n1 [Example 332] | – | – | – | 6.68 | < 4.00 | < 4.00 | –
N#CC1(Cn2cc3c(N)nc4cc(-c5cc[nH]n5)ccc4c3n2)CC1 [Example 464] | 6.62 | < 4.00 | < 4.00 | – | – | – | –
CC(C)(C(=O)NCC(F)F)n1cc2c(N)nc3cc(-c4cc[nH]n4)ccc3c2n1 [Example 514] | 5.74 | < 4.00 | < 4.00 | – | – | – | –
CC(C)(Cn1cc2c(N)nc3cc(-c4ccn[nH]4)ccc3c2n1)C(=O)NCCO [Example 594] | 5.10 | < 4.00 | < 4.00 | – | – | – | –
CC(C)C(=O)NCCn1cc2c(n1)c(N)nc1cc(-c3cc[nH]n3)ccc12 [Example 34] | – | – | – | 5.05 | < 4.00 | 4.00 to 4.70 | –
COCC(C)n1cc2c(N)nc3cc(-c4cc[nH]n4)ccc3c2n1 (single isomer, unassigned) [Example 337] | – | – | – | 6.66 | < 4.00 | < 4.00 | –
Nc1nc2cc(-c3ccn[nH]3)ccc2c2nn(CCNC(=O)c3ccccn3)nc12 [Example 159] | – | – | – | 6.17 | < 4.00 | < 4.00 | –
Nc1nc2cc(-c3cc[nH]n3)ccc2c2cn(Cc3ccccn3)nc12 [Example 25] | – | – | – | 6.59 | < 4.00 | < 4.00 | –
CCOCCn1ncc2c(N)nc3cc(-c4cc[nH]n4)ccc3c21 [Example 223] | – | – | – | 6.35 | < 4.00 | < 4.00 | –
COc1nc(C(=O)NCCc2cc3c(N)nc4cc(-c5ccn[nH]5)ccc4c3[nH]2)cs1 [Example 447] | 6.42 | < 4.00 | < 4.00 | – | – | – | –
CO[C@@H](CO)Cn1cc2c(N)nc3cc(-n4cccn4)ccc3c2n1 [Example 388] | – | – | – | 6.51 | < 4.00 | < 4.00 | –
Nc1nc2cc(-c3cc[nH]n3)ccc2c2cn(CC(=O)N3CCOCC3)nc12 [Example 532] | 6.47 | < 4.00 | < 4.00 | – | – | – | –
CS(=O)(=O)CCCn1ncc2c(N)nc3cc(-c4cc[nH]n4)ccc3c21 [Example 212] | – | – | – | 5.36 | < 4.00 | < 4.00 | –
CC(=O)NC(C)Cn1cc2c(N)nc3cc(-c4ccn[nH]4)ccc3c2n1 (single isomer, unassigned) [Example 299] | – | – | – | – | < 4.00 | < 4.00 | 5.53

SMILES | pEC50 [1, 4] | pEC50 ([2]; activity range) | pEC50 ([3]; activity range) | pEC50 [1, 5] | pEC50 ([2]; activity range class) | pEC50 ([3]; activity range class) | pEC50 ([1]; IL-1β production, human)
Nc1nc2cc(-c3cc[nH]n3)ccc2c2cn(CCNC(=O)c3ccccc3F)nc12 [Example 74] | – | – | – | 6.60 | 4.00 to 4.70 | < 4.00 | –
Cc1nc(C(=O)NCCn2cc3c(n2)c(N)nc2cc(-n4cccn4)ccc23)co1 [Example 183] | – | – | – | 6.96 | 4.00 to 4.70 | < 4.00 | –
COC1CCN(C(=O)C(C)n2cc3c(N)nc4cc(-c5ccn[nH]5)ccc4c3n2)CC1 (stereo not drawn) [Example 564] | 4.81 | < 4.00 | < 4.00 | – | – | – | –
CCn1c(CN)cc2c(N)nc3cc(-c4ccn[nH]4)ccc3c21 [Example 441] | 5.88 | < 4.00 | < 4.00 | – | – | – | –
Nc1nc2cc(-c3cc[nH]n3)ccc2c2[nH]c(CNC(=O)C3CCCCO3)cc12 (stereo not drawn) [Example 413] | 5.72 | < 4.00 | < 4.00 | – | – | – | –
Nc1nc2cc(-c3cc[nH]n3)ccc2c2cn(CCNC(=O)c3ncccn3)nc12 [Example 70] | – | – | – | 5.74 | < 4.00 | < 4.00 | –
Nc1nc2cc(-c3cc[nH]n3)ccc2c2cn(CCNC(=O)c3cc(CO)ccn3)nc12 [Example 57] | – | – | – | 5.66 | < 4.00 | < 4.00 | –
CCN1CCCC1Cn1cc2c(N)nc3cc(-c4ccn[nH]4)ccc3c2n1 (stereo not drawn) [Example 274] | – | – | – | 6.22 | < 4.00 | < 4.00 | –
COCCn1cc2c(N)nc3cc(-c4ccn[nH]4)ccc3c2c1 [Example 456] | 6.64 | < 4.00 | < 4.00 | – | – | – | –
COCCn1cc2c(n1)c(N)nc1cc(-c3ccn[nH]3)ccc12 [Example 185] | – | – | – | 6.68 | < 4.00 | 4.70 to 6.00 | –
Nc1nc2cc(-c3cc[nH]n3)ccc2c2nn(C3COCC3O)cc12 (stereo not drawn) [Example 323] | – | – | – | 6.11 | < 4.00 | < 4.00 | –
N#CCn1cc2c(n1)c(N)nc1cc(-c3cc[nH]n3)ccc12 [Example 551] | 5.65 | < 4.00 | < 4.00 | – | – | – | –
COC1CCN(C(=O)C(C)(C)Cn2cc3c(N)nc4cc(-c5ccn[nH]5)ccc4c3n2)CC1 [Example 610] | 5.36 | < 4.00 | < 4.00 | – | – | – | –
CC(=O)NC(C)Cn1cc2c(N)nc3cc(-c4ccn[nH]4)ccc3c2n1 (single isomer, unassigned) [Example 300] | – | – | – | – | < 4.00 | < 4.00 | 5.13
CN(C)Cc1nc2c(N)nc3cc(-c4ccn[nH]4)ccc3c2o1 [Example 145, 2-[(dimethylamino)methyl]-7-(1H-pyrazol-5-yl)-[1,3]oxazolo[4,5-c]quinolin-4-amine] | – | – | – | 5.56 | < 4.00 | < 4.00 | –
Cc1c(CN2CCOCC2)[nH]c2c1c(N)nc1cc(-c3cc[nH]n3)ccc12 [Example 468] | 5.79 | < 4.00 | < 4.00 | – | – | – | –
COCCOCCn1cc2c(N)nc3cc(-c4cc[nH]n4)ccc3c2n1 [Example 310] | – | – | – | 6.12 | < 4.00 | < 4.00 | –
Nc1nc2cc(-c3cc[nH]n3)ccc2c2[nH]c(CN3CC4(CCOC4)C3)cc12 [Example 492] | 6.12 | < 4.00 | < 4.00 | – | – | – | –
